Literature values in EP0475894A1, “Gemfibrozil formulations” (WARNER-LAMBERT COMPANY, priority 1990, dated 1992).

Conditions: particularly in a highly acidic medium

solubility in water: very poor solubility in water
Structure (SMILES): Cc1ccc(C)c(OCCCC(C)(C)C(=O)O)c1 [Gemfibrozil, 5-(2,5-dimethylphenoxy)-2,2-dimethylpentanoic acid]
